Article PMC9127186, “Molecular Basis Underlying Hepatobiliary and Renal Excretion of Phenolic Acids of Salvia miltiorrhiza Roots (Danshen)” (Frontiers in Pharmacology, 2022)

Legend:
[1] = biological target: human MRP3 (Homo sapiens, UniProt O15438); experiment: Vesicular transport assay, inside-out membrane vesicles expressing human MRP3; settings: 10 min
Description: (§1) Inside-out membrane vesicles (5 mg protein/mL), prepared from insect cells expressing human multidrug resistance-associated protein (MRP) 2, MRP3, MRP4, breast cancer resistance protein (BCRP), bile salt export pump (BSEP), and multidrug resistance protein (MDR) one and rat Mrp2, Mrp4, Bcrp, and Bsep, and vesicles (5 mg protein/mL; prepared from the insect cells expressing no ABC transporter; serving as negative control) were obtained from Genomembrane (Kanazawa, Japan).
(§2) The test Danshen compounds at 100 µM final concentration were separately incubated with the membrane vesicles for 10 min. Buffer C (50 mM MOPS-tris, 70 mM KCl, 7.5 mM MgCl2, pH 7.0) was used for preincubation and incubation, while buffer D (40 mM MOPS-tris, 70 mM KCl, pH 7.0) was used for vesicle washing. The transport rate (pmol/mg protein/min) of the test Danshen compound was calculated using Equation (2): Transport=(CV×VV)/T/WV (2) where C V, V V, T, and W V represent concentration of the compound in vesicular lysates supernatant (μM), volume of the lysates (μL), incubation time (10 min), and amount of vesicle protein amount per well (0.05 mg), respectively. Differential transport of the test Danshen compound between ATP-containing vesicles and AMP-containing vesicles was defined as net transport ratio (TransportATP/TransportAMP ratio). […] All the incubation samples were analyzed by liquid chromatography/mass spectrometry.

[2] = biological target: T1, rat Mrp4 (Rattus norvegicus, UniProt F1M3J4); experiment: Vesicular transport assay, inside-out membrane vesicles expressing rat Mrp4; settings: for TransportATP/TransportAMP ratio (net transport ratio): 10 min
T1 sequence (F1M3J4 1-1325): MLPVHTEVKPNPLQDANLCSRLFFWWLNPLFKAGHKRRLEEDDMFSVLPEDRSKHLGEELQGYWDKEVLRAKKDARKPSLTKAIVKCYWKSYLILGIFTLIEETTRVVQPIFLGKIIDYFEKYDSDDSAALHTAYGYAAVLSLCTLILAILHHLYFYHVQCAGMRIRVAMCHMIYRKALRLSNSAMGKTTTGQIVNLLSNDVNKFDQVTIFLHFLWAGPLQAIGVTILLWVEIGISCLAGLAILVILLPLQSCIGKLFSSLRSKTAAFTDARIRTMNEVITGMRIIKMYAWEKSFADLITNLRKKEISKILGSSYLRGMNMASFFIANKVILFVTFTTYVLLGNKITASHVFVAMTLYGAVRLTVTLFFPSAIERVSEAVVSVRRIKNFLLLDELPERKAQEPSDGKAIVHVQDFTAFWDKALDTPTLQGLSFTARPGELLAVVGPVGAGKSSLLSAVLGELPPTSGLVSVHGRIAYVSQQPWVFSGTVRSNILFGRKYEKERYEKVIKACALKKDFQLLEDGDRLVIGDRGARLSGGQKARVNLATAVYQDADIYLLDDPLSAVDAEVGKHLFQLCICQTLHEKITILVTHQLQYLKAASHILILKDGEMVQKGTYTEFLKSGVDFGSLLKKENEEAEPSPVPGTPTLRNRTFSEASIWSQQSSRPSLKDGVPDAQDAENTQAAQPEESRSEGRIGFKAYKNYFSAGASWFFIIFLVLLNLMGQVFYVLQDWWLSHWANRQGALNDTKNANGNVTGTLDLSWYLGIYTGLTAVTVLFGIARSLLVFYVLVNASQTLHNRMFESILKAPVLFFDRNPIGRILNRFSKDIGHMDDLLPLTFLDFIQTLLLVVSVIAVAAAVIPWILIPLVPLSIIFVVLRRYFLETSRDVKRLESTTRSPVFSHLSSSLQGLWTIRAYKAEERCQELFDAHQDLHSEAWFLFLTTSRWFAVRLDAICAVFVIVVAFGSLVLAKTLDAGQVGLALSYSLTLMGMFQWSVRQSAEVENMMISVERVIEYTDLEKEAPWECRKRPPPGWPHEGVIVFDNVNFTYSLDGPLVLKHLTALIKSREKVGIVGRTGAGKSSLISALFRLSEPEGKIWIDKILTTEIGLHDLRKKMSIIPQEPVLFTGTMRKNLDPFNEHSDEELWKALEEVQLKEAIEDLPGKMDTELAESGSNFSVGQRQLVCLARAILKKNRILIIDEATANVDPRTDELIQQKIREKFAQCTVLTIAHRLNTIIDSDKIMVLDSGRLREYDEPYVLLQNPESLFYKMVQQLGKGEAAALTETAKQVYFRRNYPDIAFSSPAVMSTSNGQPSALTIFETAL
Description: as §1, §2

[3] = biological target: T2, human OAT3 (Homo sapiens, UniProt Q8TCC7); experiment: Cellular transport assay, HEK-293 cells expressing human OAT3; settings: for TransportTC/TransportMC ratio (net transport ratio): 10 min
T2 sequence (Q8TCC7 1-542): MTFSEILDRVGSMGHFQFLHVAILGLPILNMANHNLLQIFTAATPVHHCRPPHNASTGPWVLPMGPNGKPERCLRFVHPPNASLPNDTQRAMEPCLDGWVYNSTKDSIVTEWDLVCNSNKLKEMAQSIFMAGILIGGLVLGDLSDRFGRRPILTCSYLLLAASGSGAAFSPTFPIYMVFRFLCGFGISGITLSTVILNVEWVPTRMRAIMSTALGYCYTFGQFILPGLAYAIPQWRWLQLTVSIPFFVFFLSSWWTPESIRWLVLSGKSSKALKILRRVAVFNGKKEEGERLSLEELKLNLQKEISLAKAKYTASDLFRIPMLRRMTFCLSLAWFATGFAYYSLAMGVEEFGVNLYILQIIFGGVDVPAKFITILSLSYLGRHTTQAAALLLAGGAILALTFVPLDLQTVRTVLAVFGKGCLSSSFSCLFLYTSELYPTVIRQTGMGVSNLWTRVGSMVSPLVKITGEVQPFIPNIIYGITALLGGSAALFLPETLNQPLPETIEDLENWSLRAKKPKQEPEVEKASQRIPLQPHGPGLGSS
Description: Briefly, HEK-293 cells were grown, at 37°C and 5% CO2, in Dulbecco’s modified Eagle’s medium, which was fortified with 10% fetal bovine serum, 1% minimal essential medium nonessential amino acids, and 1% antibiotic-antimycotic solution. A day before transfection, cells were seeded onto 24-well poly-D-lysine-coated plates at a density of 2 × 10^5 cells per well. After incubation at 37°C and 5% CO2 for 24 h, the expression plasmid and the empty vector were introduced separately into the HEK293 cells with Lipofectamine 2000 transfection reagent (Invitrogen, Carlsbad, CA, United States), according to the manufacturer’s protocol to yield transporter-expressing cells and mock cells, respectively.
Transport studies were performed 48 h after the transfection. […] Differential uptake between the transfected cells and mock cells was defined as net transport ratio (TransportTC/TransportMC ratio), where TransportTC and TransportMC are the transport rates of a test Danshen compound into transfected and mock cells, respectively. […] The determination was performed under linear uptake conditions by incubation for 5 min. Table 1 summarizes the final concentrations of the test Danshen compounds for different transporters. All the incubation samples were analyzed by liquid chromatography/mass spectrometry.
GraFit software (version 5.0; Erithacus Software Ltd, Surrey, United Kingdom) was used to determine the K m and V max values by nonlinear regression analysis of initial transport rates as a function of substrate concentration.

[4] = Danshen phenolic acid at 100 μM final concentration, human MRP3 vesicles
[5] = Danshen phenolic acid at 100 μM final concentration, rat Mrp4 vesicles
[6] = Danshen phenolic acid at 100 μM final concentration, human OAT3-transfected vs mock cells

human MRP3, sequence (O15438 whole entry): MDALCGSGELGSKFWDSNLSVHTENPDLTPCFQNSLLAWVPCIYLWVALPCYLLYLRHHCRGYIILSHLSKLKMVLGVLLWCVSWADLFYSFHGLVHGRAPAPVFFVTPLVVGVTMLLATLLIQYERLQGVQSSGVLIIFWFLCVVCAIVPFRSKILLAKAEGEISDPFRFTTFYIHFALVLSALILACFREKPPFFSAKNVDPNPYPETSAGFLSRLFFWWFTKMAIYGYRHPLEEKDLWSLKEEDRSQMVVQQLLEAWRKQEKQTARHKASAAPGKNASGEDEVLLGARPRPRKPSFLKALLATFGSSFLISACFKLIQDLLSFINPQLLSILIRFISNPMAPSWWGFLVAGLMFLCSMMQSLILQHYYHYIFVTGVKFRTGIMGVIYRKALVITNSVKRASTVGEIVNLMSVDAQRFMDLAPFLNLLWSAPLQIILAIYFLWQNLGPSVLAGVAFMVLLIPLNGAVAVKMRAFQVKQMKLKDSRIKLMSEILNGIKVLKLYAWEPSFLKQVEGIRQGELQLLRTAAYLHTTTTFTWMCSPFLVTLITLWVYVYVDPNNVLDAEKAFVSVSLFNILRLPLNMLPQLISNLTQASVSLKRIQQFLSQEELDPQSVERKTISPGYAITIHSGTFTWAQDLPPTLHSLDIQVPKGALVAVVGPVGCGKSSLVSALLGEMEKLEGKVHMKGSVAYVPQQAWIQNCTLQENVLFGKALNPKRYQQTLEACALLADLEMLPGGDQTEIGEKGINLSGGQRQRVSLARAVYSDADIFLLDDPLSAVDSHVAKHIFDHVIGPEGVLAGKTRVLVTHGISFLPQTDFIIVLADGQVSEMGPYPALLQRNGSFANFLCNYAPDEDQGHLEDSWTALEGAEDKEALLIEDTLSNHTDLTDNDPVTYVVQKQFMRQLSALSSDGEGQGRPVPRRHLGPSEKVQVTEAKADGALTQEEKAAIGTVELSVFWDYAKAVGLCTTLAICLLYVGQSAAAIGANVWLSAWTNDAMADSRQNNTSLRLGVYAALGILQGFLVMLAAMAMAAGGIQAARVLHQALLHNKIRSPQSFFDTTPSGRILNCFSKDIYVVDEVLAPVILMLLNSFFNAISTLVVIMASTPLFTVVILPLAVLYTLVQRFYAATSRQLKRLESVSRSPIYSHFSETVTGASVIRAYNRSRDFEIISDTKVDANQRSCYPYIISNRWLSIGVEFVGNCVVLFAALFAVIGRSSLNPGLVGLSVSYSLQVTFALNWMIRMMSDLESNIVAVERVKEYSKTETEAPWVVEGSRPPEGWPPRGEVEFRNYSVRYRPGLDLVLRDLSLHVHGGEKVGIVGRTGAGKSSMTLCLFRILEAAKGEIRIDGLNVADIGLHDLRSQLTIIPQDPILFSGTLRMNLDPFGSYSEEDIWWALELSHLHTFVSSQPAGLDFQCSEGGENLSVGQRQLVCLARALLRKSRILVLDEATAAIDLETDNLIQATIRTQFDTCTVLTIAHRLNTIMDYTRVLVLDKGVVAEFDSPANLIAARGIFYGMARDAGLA

Row | Molecule | TransportATP/TransportAMP ratio (net transport ratio) [1, 4] | TransportATP/TransportAMP ratio (net transport ratio) [2, 5] | TransportTC/TransportMC ratio (net transport ratio) [3, 6] | further results
1 | O=C(O)Cc1c(/C=C/C(=O)O[C@H](Cc2ccc(O)c(O)c2)C(=O)O)ccc(O)c1O [Salvianolic acid D, salvianolic acid D] | 1.35 ± 0.30 | 11.1 ± 0.2 | 1.12 ± 0.56 | substrate of rat Mrp4 [2]: substrates
2 | O=C(O)C(O)Cc1ccc(O)c(O)c1 (stereo not shown) [Tanshinol, tanshinol] | – | – | – | K m ([3]; human renal basolateral uptake OAT3, 5 min incubation, concentrations in Table 1): 1,565 ± 127 μM; microsomal CLint ([3]; human, other cell line): 0.11 µL/min/mg
3 | O=C(/C=C/c1ccc(O)c2c1[C@H](C(=O)O)[C@@H](c1ccc(O)c(O)c1)O2)O[C@H](Cc1ccc(O)c(O)c1)C(=O)O [Lithospermic acid, lithospermic acid] | 1.72 ± 0.28 | 1.46 ± 0.01 | 0.96 ± 0.15 | –
4 | salvianolic acid B | 1.47 ± 0.33 | 2.15 ± 0.32 | 1.03 ± 0.24 | –
5 | O=C(O)c1ccc(O)c(O)c1 [Protocatechuic acid, protocatechuic acid] | 1.25 ± 0.08 | 1.17 ± 0.06 | 1.12 ± 0.25 | –
6 | O=C(/C=C/c1ccc(O)c(O)c1/C=C/c1ccc(O)c(O)c1)O[C@H](Cc1ccc(O)c(O)c1)C(=O)O [Salvianolic acid A, salvianolic acid A] | – | – | – | TransportATP/TransportAMP ratio (net transport ratio) ([1]; human, 100 μM, pH 7): 1.54 ± 0.23; TransportATP/TransportAMP ratio (net transport ratio) ([2]; rat, 100 μM, pH 7): 2.09 ± 0.25; TransportTC/TransportMC ratio (net transport ratio) ([3]; human, 100 μM): 2.12 ± 0.13
7 | O=C(/C=C/c1ccc(O)c(O)c1)O[C@H](Cc1ccc(O)c(O)c1)C(=O)O [Rosmarinic acid, rosmarinic acid] | – | – | – | TransportATP/TransportAMP ratio (net transport ratio) ([1]; human, 100 μM, pH 7): 1.38 ± 0.01; substrate of rat Mrp4 [2]: substrates; TransportATP/TransportAMP ratio (net transport ratio) ([2]; rat, 100 μM, pH 7): 4.79 ± 0.38; TransportTC/TransportMC ratio (net transport ratio) ([3]; human, 100 μM): 1.56 ± 0.36
